Reference: patent US12415939B2, “Nano-adhesive and surface primer compound and use thereof” (The Regents of the University of California, priority 2015, dated 2025)
Values joined by “and” are separate entries in the source; they are usually repeats but may differ in a detail not shown here. Equal values may be shown once.

What was measured:
[1] = Surface forces apparatus (SFA) cohesion/adhesion between thin films on mica; format: physicochemical
[2] = Cyclic voltammetry of catechol oxidation; format: physicochemical; settings: for E1/2: DI water, scan rate 1 mV s−1, Ag/AgCl reference
Protocol: (§1) Cyclic voltammetry was performed on a Versastat 3 potentiostat from Ametek Co. These analyses were carried out using a three-electrode cell: a Pt wire as the counter electrode, an Ag/AgCl reference electrode, and a Carbon paste electrode (CPE) served as the working electrode. CPE is the best choice for adhesive materials because of its ability to be completely polished before each experiment. Catechol auto-oxidation was avoided by performing all electrochemical experiments with degassed deionized water in a glove bag under argon. Scan rate 1 mV s-1 was used for all experiments. CV of 5 mM synthesized polymers and 5 mM methyl catechol, a simple catechol-containing compound, were compared. Oxidation of Catechol carrying molecules occurred at more positive potentials than methyl catechol, indicating the unique structure of the dispersions provide shielding effects that stabilized catechol groups (FIG. 3).
Cyclic voltammetry was performed on a Versastat 3 potentiostat from Ametek Co. (Berwyn, PA). These analyses were carried out using a three-electrode cell: a Pt wire as the counter electrode, an Ag/AgCl reference electrode, and a Carbon paste electrode (CPE) served as the working electrode. CPE is the best choice for adhesive materials because of its ability to be completely polished before each experiment.
as §1, with “s^−1” for “s-1”, “molecules” for “polymers”, “groups. Z-Cat-Ben with an oxidation peak at 840 mV is more resistant to oxidation than the other species” for “groups”, “42).” for “3).”

[3] = Z-Cat-C10 0.1 mg ml−1 sample in DI water

| hard-wall thickness ([1]; SAMs from 5 mM, mica) [nm] | molecular density on mica ([1]; from cohesion energy and π-π interaction) | oxidation peak ([2]; 5 mM in degassed DI water, 1 mV s−1) [mV] | E1/2 [2] [V] | thin film thickness ([1]; post-oxidation, crosslinked films) | oxidation peak [2, 3] [mV] | reduction peak [2, 3] [mV] | Compound | effect of sodium periodate treatment on cohesion ([1]; 500 pmoles periodate) | cohesion energy Wc between SAMs ([1]; 5 mM in DI water, mica) | effect of aqueous Fe3+ on cohesion ([1]; CFe3+=10 M as printed) | cohesion energy Wc before and after periodate and iron treatments ([1]; SAMs on mica) [mJ/m^2] | stability in water to oxidation (shelf life) ([2]; 5 mM in DI water) | adhesion on mica relative to mfp-5 and mfp-amyloid fusion protein [1] | increase in adhesion after asymmetric oxidation ([1]; after tc=60 min contact time) [%] | decrease in cohesion after symmetric periodate oxidation ([1]; contact times ≤tc=10 min, rebounded after tc=60 min) [%] | adhesion energy Wad after periodate oxidation ([1]; cross-linked films on mica, tc=12 h compressive contact) [mJ m^−2] | cohesion (or adhesion) energy Wc ([1]; symmetric films adsorbed from 5 mM, DI water, mica) [mJ m^−2] | work of adhesion before periodate ([1]; uncross-linked films on mica) [mJ m^−2] |
| --- | --- | --- | --- | --- | --- | --- | --- | --- | --- | --- | --- | --- | --- | --- | --- | --- | --- | --- |
| ~1 | 1.07×10^18 molecules per m^2 | 840 | 0.418 |  |  |  | C[N+](C)(CCCc1ccccc1)CCOP(=O)([O-])OCCCc1ccc(O)c(O)c1 [Z-Cat-Ben] | same before and after | 19±3 mJ/m^2 and 18.7±2.8 mJ/m^2 | not affected | ~20 | stable (shelf life) in water to oxidation |  |  |  |  |  |  |
|  |  |  | ~0.25 | 2-4 nm | 530 | 316 | CN(C)CCOP(=O)(O)OCCCc1ccc(O)c(O)c1 [Z-Cat-C10] |  |  |  |  |  | 2-3 fold | 50 | 50 | ~50 | 10.1±2.3 | ~20 |
